Publication PMC8198038, “In Vitro Evaluation of Antiproliferative Properties of Novel Organotin(IV) Carboxylate Compounds with Propanoic Acid Derivatives on a Panel of Human Cancer Cell Lines” (Molecules, 2021)

Tested on: MCF-7 cells
Test: Morphological analysis (AO and DAPI staining)
Type: cell-based, human
Conditions: 24 h, IC50 or 2 × IC50
Method: The morphological changes of MCF-7 cell death induced by Ph3SnL1 and cisplatin were studied by AO (acridine orange) and DAPI (4′,6-diamidino-2-phenylindole) staining, and examined under a fluorescence microscope. Acridine orange can cross the cell membrane and viable and early apoptotic cells can be detected. Chromatin condensation, seen as dense green areas, or membrane blebbing, both appearing in apoptosis, is easily proven by AO staining. After 24 h of treatment (IC50 and 2 × IC50 concentrations) the cells were stained with acridine orange (3 μg/mL AO in PBS), and observed with a fluorescence microscope (Fluorescence microscope-Invitrogen EVOS FL 2 Auto 2 Cell Imaging System). On the other hand, for the DAPI assay 0.5 mL of Triton (0.1% in PBS) was added to the treated cells after the fixing the cells with 0.5 mL of 4% paraformaldehyde (PFA) for 8 min. Thereafter, 0.5 mL of DAPI solution was used to stain the cells for 5 min in the dark. The morphological characteristics were visualized under a fluorescence microscope (Fluorescence microscope-Invitrogen EVOS FL 2 Auto 2 Cell Imaging System).

SMILES: O=C(CCc1nc(-c2ccccc2)c(-c2ccccc2)o1)[O][Sn]([c]1ccccc1)([c]1ccccc1)[c]1ccccc1 [Ph3SnL1, (3-(4,5-Diphenyloxazol-2-yl)propanoato)triphenyltin(IV)]
- morphological changes (AO and DAPI staining): notable morphological changes
